Laboratory results as given in patent publication US20230279020A9, “CARM1 INHIBITORS AND USES THEREOF” (Epizyme, Inc., priority 2013, published 2023).

Molecular target: Human CARM1 (PRMT4) (Homo sapiens (Human), UniProt Q86X55)
Assay: CARM1 enzyme assay on peptide substrate (3H-SAM Flashplate)
Conditions: Biochemical potencies, classification codes; read-out: Biochem IC50

Human CARM1 (PRMT4), sequence (Q86X55 other isoform, or with tags, fused parts or gaps isoform Q86X55-1): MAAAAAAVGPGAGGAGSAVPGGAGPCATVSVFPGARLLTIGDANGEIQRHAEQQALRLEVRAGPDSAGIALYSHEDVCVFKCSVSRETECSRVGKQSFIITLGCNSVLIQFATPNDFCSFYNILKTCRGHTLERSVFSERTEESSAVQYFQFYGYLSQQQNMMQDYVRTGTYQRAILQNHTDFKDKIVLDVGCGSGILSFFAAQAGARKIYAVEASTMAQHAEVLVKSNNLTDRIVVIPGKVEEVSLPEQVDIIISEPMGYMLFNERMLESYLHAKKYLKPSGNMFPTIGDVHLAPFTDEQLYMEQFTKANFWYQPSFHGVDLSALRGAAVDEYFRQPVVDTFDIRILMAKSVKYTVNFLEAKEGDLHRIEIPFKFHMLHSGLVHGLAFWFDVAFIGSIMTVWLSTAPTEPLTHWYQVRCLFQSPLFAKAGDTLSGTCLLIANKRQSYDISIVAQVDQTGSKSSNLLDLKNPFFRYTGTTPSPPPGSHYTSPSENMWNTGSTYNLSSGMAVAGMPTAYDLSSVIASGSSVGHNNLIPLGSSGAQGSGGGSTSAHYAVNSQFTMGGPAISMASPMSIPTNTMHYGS

Row | Compound | IC50 [nM]
1 | CCOC(=O)N1CCN(c2nc(-c3cccc(OCC(O)CNC)c3)nc(N[C@@H]3CCOC3)c2C)C[C@H]1C (stereo partly drawn) [Example 470-1a] | < 100
2 | CNCC(O)COc1cccc(-c2nc(N(C)C3CCOCC3)cc(-n3nc(C)cc3C)n2)c1 (stereo not drawn) [Example 568-1a] | < 100
3 | CNCC(O)COc1cccc(-c2nc(NCCOC)cc(-c3c(C)noc3C)n2)c1 (stereo not drawn) [Example 20-1] | < 100
4 | CNCC(O)COc1cccc(-c2nc(N[C@@H]3CCOC3)c(C)c(-c3ccc(OC)nc3)n2)c1 (stereo partly drawn) [Example 408-1a] | < 100
5 | CNCC(O)COc1cccc(-c2nc(N3CCN(C)C(=O)C3)cc(N(C)C3CCOCC3)n2)c1 (stereo not drawn) [Example 549-1a] | < 100
6 | CCC1(CNc2nc(-c3cccc(OCC(O)CNC)c3)nc(-c3c(C)noc3C)c2C)CCOCC1 (stereo not drawn) [Example 141-1a] | < 100
7 | CNCC(O)COc1cccc(-c2nc(NC3CNC3)c(C)c(-c3c(C)noc3C)n2)c1 (stereo not drawn) [Example 1-3] | < 100
8 | CNCC(O)COc1cccc(-c2nc(-c3c(C)noc3C)c(C)c(N3C[C@H]4CC[C@@H](C3)N4C)n2)c1 (stereo partly drawn) [Example 116-1a] | < 100
9 | CNCC(O)COc1cccc(-c2nc(-c3c(C)noc3C)c(C)c(N3CCO[C@H](CN(C)S(C)(=O)=O)C3)n2)c1 (stereo partly drawn) [Example 126-1a] | < 100
10 | CNCC(O)COc1cccc(-c2nc(NC3CCOC3)c(C)c(N3CCNC[C@H]3C)n2)c1 (stereo partly drawn) [Example 352-1a] | < 100
11 | CNCC(O)COc1cccc(-c2nc(-c3cccc(C#N)c3)cc(N(C)CCC#N)n2)c1 (stereo not drawn) [Example 24-1] | < 100
12 | CNCC(O)COc1cccc(-c2nc(NC3CCS(=O)(=O)CC3)c(C)c(-c3c(C)noc3C)n2)c1 (stereo not drawn) [Example 59-1a] | < 100
13 | CNC[C@@H](O)COc1ccc(Cl)c(-c2nc(-c3c(C)noc3C)c(C)c(N3Cc4nccnc4C3)n2)c1 [Example 142-3] | < 100
14 | CNC[C@@H](O)COc1ccc(Cl)c(-c2nc(-c3c(C)noc3C)c(C)c(N3CCC4(CC4)C3)n2)c1 [Example 234-3] | < 100
15 | CNCC(O)COc1cccc(-c2nc(-c3c(C)noc3C)cc(N3CCN(C)[C@@H](C)C3)n2)c1 (stereo partly drawn) [Example 93-1a] | < 100
16 | CNC[C@H](O)COc1ccc(Cl)c(-c2nc(NC3CCN(C(=O)OC)CC3)c(Cl)c(-c3c(C)noc3C)n2)c1 [Example 305-1a] | < 100
17 | CNCC(O)COc1cccc(-c2nc(NC3CCOC(C)C3)c(C)c(-c3c(C)noc3C)n2)c1 (stereo not drawn) [Example 239-1a] | < 100
18 | CNCC(O)COc1cccc(-c2nc(OCC3CCN(C(=O)N(C)C)CC3)c(C)c(-c3c(C)noc3C)n2)c1 (stereo not drawn) [Example 285-1a] | < 100
19 | CNCC(O)COc1cccc(-c2nc(Nc3cnc(OC)nc3)cc(-c3c(C)noc3C)n2)c1 (stereo not drawn) [Example 72-1a] | < 100

Row | Compound | IC50 [nM]
20 | CNC[C@@H](O)COc1ccc(Cl)c(-c2nc(N[C@@H]3CO[C@@H](C)C3)c(C)c(-c3c(C)noc3C)n2)c1 [Example 162-3] | < 100
21 | CNCC(O)COc1cccc(-c2nc(SC)c(C)c(-c3c(C)noc3C)n2)c1 (stereo not drawn) [Example 53-1a] | < 100
22 | CNCC(O)COc1cc(Cl)cc(-c2nc(N[C@H]3CCOC3)c(C)c(-c3ccncc3)n2)c1 (stereo partly drawn) [Example 45-1] | < 100
23 | CNCC(O)COc1cccc(-c2nc(N[C@@H]3CC[C@@H](O)C3)cc(-c3c(C)noc3C)n2)c1 (stereo partly drawn) [Example 44-1a] | < 100
24 | CNCC(O)COc1cccc(-c2nc(NC3CCOC3)c(C)c(N3CCN(CC(F)(F)F)CC3)n2)c1 (stereo not drawn) [Example 449-1a] | < 100
25 | Cc1noc(C)c1-c1nc(-c2cc(OC[C@H](O)CN(C)C)ccc2Cl)nc(N[C@H]2CCN(C3CC3)[C@@H](C)C2)c1C [Example 171-3] | < 100
26 | CNCC(O)COc1cccc(-c2nc(-c3c(C)noc3C)c(C)c(N(C)[C@H]3C[C@@](C)(OC)C3)n2)c1 (stereo partly drawn) [Example 20-3] | < 100
27 | CNC[C@@H](O)COc1ccc(Cl)c(-c2nc(-c3c(C)noc3C)c(C)c(N3CCc4nc(C)sc4C3)n2)c1 [Example 141-3] | < 100
28 | CNC[C@H](O)COc1ccc(Cl)c(-c2nc(-c3c(C)noc3C)c(C)c(N3Cc4cn(C(C)C)nc4C3)n2)c1 [Example 272-1a] | < 100
29 | CNCC(O)COc1cccc(-c2nc(NC3CCOCC3)cc(-c3ccc4c(c3)OCCO4)n2)c1 (stereo not drawn) [Example 657-1a] | < 100
30 | CNCC(O)COc1cc(Cl)cc(-c2nc(-c3ccn4cnnc4c3)c(C)c(N(C)C3CCOCC3)n2)c1 (stereo not drawn) [Example 70-1] | < 100
31 | CNCC(O)COc1ccc(Cl)c(-c2nc(NCC3CCCCO3)c(C)c(-c3c(C)noc3C)n2)c1 (stereo not drawn) [Example 31-3] | < 100
32 | CNC[C@H](O)COc1ccc(Cl)c(-c2nc(-c3c(C)noc3C)c(C)c(N3Cc4cc(Cl)cnc4C3)n2)c1 [Example 87-3] | < 100
33 | CCS(=O)(=O)N1CC2(CCCN(c3nc(-c4cccc(OCC(O)CNC)c4)nc(-c4c(C)noc4C)c3C)C2)C1 (stereo not drawn) [Example 296-1a] | < 100
34 | CNCC(O)COc1cc(N)cc(-c2nc(NC3CCOCC3)c(C)c(-c3c(C)noc3C)n2)c1 (stereo not drawn) [Example 74-1a] | < 100
35 | CNCC(O)COc1cc(OC)cc(-c2nc(C3CC3)cc(N(C)C3CCOCC3)n2)c1 (stereo not drawn) [Example 25-1] | < 100
36 | CNCC(O)COc1cccc(-c2nc(N3CCN4C(=O)OC[C@@H]4C3)cc(N(C)C3CCOCC3)n2)c1 (stereo partly drawn) [Example 576-1a] | < 100
37 | CNCC(O)COc1cccc(-c2nc(C(=O)NC3CCN(C)CC3)cc(-c3c(C)noc3C)n2)c1 (stereo not drawn) [Example 160-1a] | < 100
38 | CNCC(O)COc1cccc(-c2nc(-c3c(C)noc3C)c(C)c(N3CCS(=O)(=O)CC3)n2)c1 (stereo not drawn) [Example 57-1a] | < 100

More lines, now with the values ahead:

Row | IC50 [nM] | Compound
39 | < 100 | CNCC(O)COc1cccc(-c2nc(NC(C)C3CCOCC3)c(C)c(-c3c(C)noc3C)n2)c1 (stereo not drawn) [Example 157-1a]
40 | < 100 | CCS(=O)(=O)N1CC2(CCN(c3nc(-c4cccc(OCC(O)CNC)c4)nc(-c4c(C)noc4C)c3C)CC2)C1 (stereo not drawn) [Example 253-1a]
41 | < 100 | CNCC(O)COc1cccc(-c2nc(N[C@@H]3CCOC3)c(C)c(N3CC[C@@H](c4cccnc4)C3)n2)c1 (stereo partly drawn) [Example 467-1a]
42 | < 100 | CNC[C@@H](O)COc1ccc(Cl)c(-c2nc(-c3c(C)noc3C)c(C)c(N3Cc4cncnc4C3)n2)c1 [Example 190-3]
43 | < 100 | CNCC(O)COc1cccc(-c2nc(NCCCN3CCCC3=O)cc(-c3ccnc(OC)c3)n2)c1 (stereo not drawn) [Example 60-1]
44 | < 100 | CNC[C@@H](O)COc1ccc(F)c(-c2nc(-c3c(C)noc3C)c(C)c(N3Cc4nccnc4C3)n2)c1 [Example 226-3]
45 | < 100 | CNCC(O)COc1cccc(-c2nc(-c3ccnc(OC)c3)cc(N(CCOC)CCOC)n2)c1 (stereo not drawn) [Example 57-1]
46 | < 100 | CNCC(O)COc1cccc(-c2nc(NC3CCOC(C)(C)C3)c(C)c(-c3c(C)noc3C)n2)c1 (stereo not drawn) [Example 290-1a]
47 | < 100 | CNCC(O)COc1cccc(-c2nc(NC3CCN(C(=O)OC)CC3)c(Cl)c(-c3c(C)noc3C)n2)c1 (stereo not drawn) [Example 202-1a]
48 | < 100 | CNC[C@H](O)COc1ccc(Cl)c(-c2nc(NC3CCN(C(=O)OC)CC3)c(C)c(-c3c(C)noc3C)n2)c1 [Example 89-3]
49 | < 100 | CNCC(O)COc1cccc(-c2nc(OCC3CCN(CC(F)F)CC3)c(C)c(-c3c(C)noc3C)n2)c1 (stereo not drawn) [Example 288-1a]
50 | < 100 | CNCC(O)COc1cccc(-c2nc(OCC3CCN(C(=O)OC)CC3)c(C)c(-c3c(C)noc3C)n2)c1 (stereo not drawn) [Example 284-1a]
51 | < 100 | CNC[C@H](O)COc1ccc(Cl)c(-c2nc(NCCC(C)(C)OC)c(C)c(-c3c(C)noc3C)n2)c1 [Example 82-3]
52 | < 100 | CNC[C@@H](O)COc1ccc(Cl)c(-c2nc(N[C@@H]3CCN(C4CC4)C[C@@H]3F)c(C)c(-c3c(C)noc3C)n2)c1 [Example 167-3]
53 | < 100 | CCN1CCC[C@H]1CNc1nc(-c2cc(OC[C@@H](O)CNC)ccc2Cl)nc(-c2c(C)noc2C)c1C [Example 48-3]
54 | < 100 | CNC[C@@H](O)COc1ccc(Cl)c(-c2nc(N[C@H]3CO[C@@H](C)C3)c(Cl)c(-c3c(C)noc3C)n2)c1 [Example 148-3]

Row | IC50 [nM] | Compound
55 | < 100 | CCOC(=O)N1CCOC[C@@H]1COc1nc(-c2cc(OC[C@H](O)CNC)ccc2Cl)nc(-c2c(C)noc2C)c1C [Example 161-3]
56 | < 100 | CNCC(O)COc1cccc(-c2nc(-c3c(C)noc3C)cc(-c3c(C)noc3C)n2)c1 (stereo not drawn) [Example 3-1a]
57 | < 100 | CNCC(O)COc1cccc(-c2nc(-c3c(C)noc3C)c(C)c(N(C)C3CCOCC3)n2)c1 (stereo not drawn) [Example 34-1a]
58 | < 100 | CNC[C@H](O)COc1ccc(F)c(-c2nc(N[C@H]3CCN(C(=O)OC)C[C@H]3F)c(C)c(-c3c(C)noc3C)n2)c1 [Example 63-3]
59 | < 100 | CNCC(O)COc1cccc(-c2nc(NC3CCCN(C(=O)N(C)C)C3)c(C)c(-c3c(C)noc3C)n2)c1 (stereo not drawn) [Example 216-1a]
60 | < 100 | CNCC(O)COc1cccc(-c2nc(NC3CCC[C@H]3O)c(C)c(-c3c(C)noc3C)n2)c1 (stereo partly drawn) [Example 219-1a]
61 | < 100 | CNC[C@@H](O)COc1ccc(Cl)c(-c2nc(-c3c(C)noc3C)c(Cl)c(N3Cc4nccnc4C3)n2)c1 [Example 225-3]
62 | < 100 | CCOC(=O)N1CCOC[C@@H]1CNc1nc(-c2cc(OC[C@H](O)CNC)ccc2Cl)nc(-c2c(C)noc2C)c1Cl [Example 56-3]
63 | < 100 | CCS(=O)(=O)N1CCOC[C@@H]1CNc1nc(-c2cccc(OCC(O)CNC)c2)nc(-c2c(C)noc2C)c1C (stereo partly drawn) [Example 230-1a]
64 | < 100 | CNC[C@@H](O)COc1ccc(Cl)c(-c2nc(NC3CCN(C)CC3(F)F)c(C)c(-c3c(C)noc3C)n2)c1 (stereo partly drawn) [Example 258-3]
65 | < 100 | CCOC(=O)N1CCC(CNc2nc(-c3cccc(OCC(O)CNC)c3)nc(-c3c(C)noc3C)c2C)CC1 (stereo not drawn) [Example 191-1a]
66 | < 100 | CNCC(O)COc1cccc(-c2nc(C(C)C)cc(N(C)C3CCOCC3)n2)c1 (stereo not drawn) [Example 13-1]
67 | < 100 | CNCC(O)COc1cc(Cl)cc(-c2nc(-c3cnc4ccccc4n3)c(C)c(N(C)C3CCOCC3)n2)c1 (stereo not drawn) [Example 612-1a]
68 | < 100 | CNCC(O)COc1cccc(-c2nc(N[C@@H]3CCOC3)c(C)c(N3CCN(C(C)=O)C(C)(C)C3)n2)c1 (stereo partly drawn) [Example 439-1a]
69 | < 100 | CNCC(O)COc1cccc(-c2nc(N[C@@H]3CCN(C4CC4)C[C@H]3F)c(C)c(-c3c(C)noc3C)n2)c1 (stereo partly drawn) [Example 261-1a]
